Columns and labels:
[1] = biological target: T1, human PPARα (Homo sapiens, UniProt Q07869); experiment: PPARα transactivation assay (HeLa cells, luciferase reporter); type: cell-based; details: HeLa cells, n=12; read-out: half-maximal effective concentration (EC50), PPARα activation
T1 construct: expressed in transfected cells
T1 sequence (Q07869 239-466 limits assumed): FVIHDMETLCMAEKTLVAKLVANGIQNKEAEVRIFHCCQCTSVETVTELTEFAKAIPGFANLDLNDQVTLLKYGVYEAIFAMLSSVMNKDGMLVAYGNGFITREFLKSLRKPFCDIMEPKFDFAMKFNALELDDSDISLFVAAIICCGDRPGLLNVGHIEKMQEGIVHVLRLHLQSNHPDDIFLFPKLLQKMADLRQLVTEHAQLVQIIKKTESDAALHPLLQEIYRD
Experimental: (§1) Transactivation assays were performed as previously described [Fu et al., Nature 425:90-93 (2003)].
PPAR-α transactivation. Plasmids were generated which contained the ligand-binding domain of human PPAR-α (nucleotides 499-1,407) fused to the DNA-binding domain of yeast GAL4 under control of the human cytomegalovirus promoter and to a neomycin resistance gene to provide stable selection with 0.2 mg-ml-1 G418 (Calbiochem). We cultured HeLa cells in Dulbecco's-modified Eagles's medium (DMEM) supplemented with fetal bovine serum (10%), transfected them with Fugene 6 ([…], Roche) containing the pFR-luc plasmid ([…], Stratagene) and, 18 h later, replaced the media with DMEM containing hygromycin (0.1 mg ml−1, Calbiochem). […] Cells were maintained in DMEM containing hygromycin and G418. For transactivation assays, we seeded cells in 6-well plates and incubated them for 7 h in DMEM containing hygromycin and G418, plus appropriate concentrations of test compounds. We used a dual-luciferase reporter assay system (Promega) and an MLX Microtiter® plate luminometer (Dynex) to determine luciferase activity in cell lysates.

[2] = biological target: T2, PPARγ (Homo sapiens, UniProt P37231); experiment: PPARγ transactivation assay; type: cell-based; details: concentrations as high as 20 μM
T2 construct: expressed in transfected cells
T2 sequence (P37231 1-505): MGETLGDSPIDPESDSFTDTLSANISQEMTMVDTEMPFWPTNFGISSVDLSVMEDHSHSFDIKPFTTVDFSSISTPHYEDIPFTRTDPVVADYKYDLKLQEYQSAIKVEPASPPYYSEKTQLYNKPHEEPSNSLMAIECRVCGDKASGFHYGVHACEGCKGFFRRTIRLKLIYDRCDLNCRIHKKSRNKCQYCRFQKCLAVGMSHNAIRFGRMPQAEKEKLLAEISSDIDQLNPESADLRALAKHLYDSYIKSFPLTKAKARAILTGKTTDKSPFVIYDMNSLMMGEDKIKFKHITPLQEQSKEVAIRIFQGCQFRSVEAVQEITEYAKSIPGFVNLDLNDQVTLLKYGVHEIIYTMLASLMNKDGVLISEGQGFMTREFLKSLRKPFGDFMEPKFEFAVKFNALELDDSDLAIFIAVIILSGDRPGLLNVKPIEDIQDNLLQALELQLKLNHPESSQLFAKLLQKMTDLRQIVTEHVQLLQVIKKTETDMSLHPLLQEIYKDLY
Experimental: as §1

[3] = tested on: mice; experiment: Carrageenan-evoked paw edema (acute); type: in vivo, mouse; details: wild-type C57Bl6J; PEA 10 mg-kg^−1 i.p., WY-14643 20 mg-kg^−1 i.p.
Source text: In addition to rapid-onset analgesia, PEA also exerts prolonged anti-inflammatory effects [Benvenuti, et al., Boll Soc It Biol Sper 44, 809-813 (1968); Lambert, et al., Curr Med. Chem. 9, 663-74 (2002)], which are associated with the down-regulation of pro-inflammatory proteins such as nitric oxide synthase (NOS) [Costa, et al., Br J Pharmacol 137, 413-20. (2002)]. Two models of acute inflammation were used to examine whether such effects are mediated through PPARα. First, paw edema was induced in C57B16J wild-type and PPARα^−/− mice by local injection of the irritant, carrageenan [Cirino, et al., Eur J Pharmacol 166, 505-10 (1989)]. […] Next, ear edema was produced in CD1 mice by topical administration of the phorbol ester, 12-O-tetradecanoylphorbol-13-acetate (TPA) [Sheu, et al., J Invest Dermatol., 94-101. (2002)]. […] In a parallel set of experiments, the effects of PEA (20 μg) on TPA-induced edema were tested in C57B16J wild-type and PPARα^−/− mice. […] Together, these findings indicate that PEA reduces acute nociception and inflammation through activation of PPARα.
An inflammatory response was initiated by injecting 2% (w v^−1, 20 μl) λ-carrageenan in sterile saline into mice hind paws using a 27-gauge needle. Drugs were administered 30 minutes before carrageenan (i.p.). Paw edema was measured using a plethysmometer (Ugo Basile, Italy).

[4] = biological target: T3, PPARβ/δ (Homo sapiens, UniProt Q03181); experiment: PPARβ/δ transactivation assay; type: cell-based; details: concentrations as high as 20 μM
T3 construct: expressed in transfected cells
T3 sequence (Q03181 1-441): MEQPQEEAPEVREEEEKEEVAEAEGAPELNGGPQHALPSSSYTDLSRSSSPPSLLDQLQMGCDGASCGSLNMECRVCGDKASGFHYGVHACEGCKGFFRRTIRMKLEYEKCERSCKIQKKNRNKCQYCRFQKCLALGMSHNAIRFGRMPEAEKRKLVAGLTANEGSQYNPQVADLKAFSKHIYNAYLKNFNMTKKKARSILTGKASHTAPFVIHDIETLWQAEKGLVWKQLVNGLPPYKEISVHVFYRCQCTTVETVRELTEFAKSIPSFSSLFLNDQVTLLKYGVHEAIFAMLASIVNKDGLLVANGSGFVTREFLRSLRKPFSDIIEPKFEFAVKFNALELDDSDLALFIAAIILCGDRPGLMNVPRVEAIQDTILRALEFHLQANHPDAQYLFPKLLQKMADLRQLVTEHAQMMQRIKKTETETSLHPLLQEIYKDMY
Experimental: as §1

**Q.** How did the EC50 [1] turn out when `CCCCCCCCCCCCCCCC(=O)NCCO` [PEA, palmitoylethanolamide] was run?
**A.** The EC50 was 3 µM.

**Q.** What about the PPARγ activation [2] of the same compound?
**A.** Its PPARγ activation is “did not activate”.

**Q.** What about the “carrageenan paw edema in wild-type mice” value [3] of the same compound?
**A.** Its value is “decreased edema”.

**Q.** And the PPARβ/δ activation [4]?
**A.** The PPARβ/δ activation was “did not activate”.

— patent US20080103209A1, “Compounds And Methods For Treating Non-Inflammatory Pain Using Ppar Alpha Agonists” (The Regents of The University of California, priority 2004, published 2008)
